These results are taken from US8048869B2, “Pharmaceutical composition for use in hormone replacement therapy” (Pantarhei Bioscience B.V., priority 2001, dated 2011).

Assay [1] deals with T1, rat uterine cytosol estrogen receptor (Rattus norvegicus, UniProt P06211).
T1 construct: host or cells: rat uterus (cytosol and nuclear fractions), Martucci et al. 1976
T1 sequence (P06211 1-600): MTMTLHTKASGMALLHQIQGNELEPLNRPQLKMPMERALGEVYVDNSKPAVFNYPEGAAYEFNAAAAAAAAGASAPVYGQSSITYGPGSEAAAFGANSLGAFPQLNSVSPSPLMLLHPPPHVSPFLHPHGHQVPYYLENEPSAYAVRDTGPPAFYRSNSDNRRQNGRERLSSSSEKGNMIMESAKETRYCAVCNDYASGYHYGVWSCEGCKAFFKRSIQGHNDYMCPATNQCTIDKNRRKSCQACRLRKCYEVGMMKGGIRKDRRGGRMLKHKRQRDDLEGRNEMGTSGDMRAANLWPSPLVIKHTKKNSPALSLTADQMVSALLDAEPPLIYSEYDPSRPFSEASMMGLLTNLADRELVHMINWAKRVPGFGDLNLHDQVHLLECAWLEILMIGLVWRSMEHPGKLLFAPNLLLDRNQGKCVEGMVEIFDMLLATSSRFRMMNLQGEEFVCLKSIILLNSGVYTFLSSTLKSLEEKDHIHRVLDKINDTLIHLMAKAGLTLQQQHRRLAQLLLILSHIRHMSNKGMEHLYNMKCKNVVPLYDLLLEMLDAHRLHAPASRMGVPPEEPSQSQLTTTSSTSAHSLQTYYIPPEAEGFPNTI
The conditions noted are these: cited from earlier work.

In assay [2] the test system is OVX-rats. Briefly: Indentation test of distal femur (bone biomechanical strength), OVX rat. The class given is in vivo. Conditions: 4 weeks; for Energy / Maximum load / Stiffness / Ultimate strength: po, distal femur. How it is done: The ovariectomized aged rat was used as a model for the human disease osteoporosis. This is an established animal model, recommended by the United States Food and Drug Administration (FDA), to evaluate and assess potential agents for osteoporosis prevention and therapy. The anti-resorptive efficacy of estetrol (E4) was tested by ex vivo measuring total and trabecular bone mineral density and bone strength after 4 weeks of treatment at necropsy. 17α-ethinyl-estradiol (EE) and vehicle (1% ethanol/arachidis oil) served as controls in this bioassay.
Three months old female Sprague-Dawley rats were either sham-operated (Sham) or ovariectomized (OVX) one day prior to commencement of the dosing study. Animals were anesthetized using a ketamine/xylazine anesthetic mixture and underwent a bilateral ovariectomy or were sham-treated. A section of hair on the dorsal surface was shaved and an incision made overlying the lumbar region of the spine. The skin was separated from the underlying fascia so that a second incision could be made through the abdominal musculature approximately caudal to the kidneys. The ovaries were then exteriorized and removed and the musculature was closed with a single suture. The skin incision was closed using surgical staples.
Ten animals per treatment group were orally dosed once per day for four consecutive weeks. The dosing commenced 1 day after surgical removal of the ovaries and was administered by oral gavage using a syringe and stainless steel gavage needle at doses of 0.1 mg/kg /day EE, or either 2.5, 0.5 or 0.1 mg/kg/day E4. Vehicle control was daily administered to one group of OVX-animals and sham-operated rats. After treatment, anesthetized rats were subjected to cardiac puncture and asphyxiated by CO2 inhalation. Tibiae and femura were removed, cleaned of soft-tissue and fixed and stored in 70% ethanol/saline at 4° C. (tibia) or saline at 4° C. (femura) until fuirther analysis.
Ex vivo evaluation of bone biomechanical strength was performed with an indentation test at the distal femura. Prior to mechanical testing femura were rinsed in cold saline and carefully cleaned of any remaining adherent soft tissue. A 3-mm segment of the distal femoral metaphysis was cut directly proximal to the femoral condyle with a low-speed diamond saw under constant saline irrigation. The load was applied with a cylindrical indenter (with a flat testing face of 1.6 mm diameter) to the center of marrow cavity on the distal face of the segment. The indenter was allowed to penetrate the cavity at a constant displacement of 6 mm/min to a depth of 2 mm before load reversal.
The maximum load, stiffness and energy absorbed were determined from load displacement curves. Ultimate strength was calculated by dividing the maximum load by the indenter area. Furthermore, mean ultimate strength values are depicted in FIG. 2. […] Reductions in maximum load, stiffness, energy and ultimate strength were −68%, −68%, −27% and −68%, respectively, clearly accompanying the bone mineral density loss in estrogen deficient rats.

Assay [3] concerns morphine-dependent ovariectomized (OVX) rat. Kind of assay: Morphine-dependent OVX rat hot flush model, naloxone-induced tail skin temperature rise. The class given is in vivo. As for the experimental part: The morphine-dependent ovariectomized (OVX) rat was used as a model for postmenopausal hot flush. The potency of estetrol (E4) to prevent tail skin temperature rises, normally accompanied by a drop in core body temp arature, after naloxone-induced opiate withdrawel was tested. 17α-ethinyl-estradiol (EE) and vehicle. (hydroxy propyl-beta-cyclodextrin 20% wt/vol) served as controls in this bioassay.
The morphine-dependent ovariectomized (OVX) rat model has been proposed by several investigators (Katovich et al, 1986, Maturitas, 67-76; Merchenthaler et al. 1998, Maturitas, 307-316) as an animal model for the hot flush. During opiate withdrawal with the morphine antagonist naloxone, tail skin temperature (TST) rises and this rise is accompanied by a drop in core body temperature. In addition, the temperature changes are accompanied by surges in LH and a transient tachycardia. These events are similar in magnitude and temporal nature to those observed in the menopausal hot flush.
Three days prior to the commencement of dosing, animals were anesthetized using a ketamine/xylazine anesthetic mixture and underwent a bilateral ovariectomy. […]
For the hot flush manipulations the animals were placed in a test cage. […] The tail-skin temperature was recorded until it was stable and the animals were then injected with naloxone HCl (1 mg/kg). […]

Assay [4] relates to human breast cancer cells (MCF-7). The conditions noted are these: cited from earlier work.

On to `C[C@]12CC[C@@H]3c4ccc(O)cc4CC[C@H]3[C@@H]1[C@@H](O)[C@@H](O)[C@@H]2O` [E4, 1,3,5 (10)-estratrien-3,15α,16α,17β-tetrol], for which the “relative binding affinity, 17β-estradiol = 100%” value in assay [1] was 0.5%. For the same compound, in assay [2] (oral treatment, dose-dependent), the “effect on declines in maximum load, stiffness, energy and ultimate strength” value is “prevented the declines in maximum load, stiffness, energy and ultimate strength”. In assay [2] (0.1 mg/kg/day), this compound returned an Energy of 0.09 mJ, a Maximum load of 1.50 N, a Stiffness of 28.00 N/mm and a Ultimate strength of 0.80 N/mm2. In assay [2] (0.5 mg/kg/day), this compound displayed an Energy of 0.31 mJ, a Maximum load of 7.25 N, a Stiffness of 132.57 N/mm and a Ultimate strength of 3.85 N/mm2. Moreover, in assay [3] (po, 3.0 mg/kg/day (FIG. 3)), the “suppressive response on TST compared with EE” value was “suppressive response similar to the potent oral estrogen, 17α-ethinyl estradiol (EE)”. Also, the “effect on naloxone-induced tail skin temperature (TST)” value in assay [3] (po, 0.3, 1.0 and 3.0 mg/kg/day (FIG. 3)) was “attenuated the TST”. Besides, in assay [4], the “agonistic potency in in vitro cell proliferation, relative to 17β-estradiol” value is 2%.
